The source made the active and inactive calls. The rule behind the calls is not given here.
Target: Forkhead box protein O1 (Homo sapiens) (UniProt Q12778)
Experiment: Inhibition of FOXO1a nuclear export in PTEN-deficient cells
Format: cell-based

Sequence of Forkhead box protein O1 (Homo sapiens) (Q12778 whole entry): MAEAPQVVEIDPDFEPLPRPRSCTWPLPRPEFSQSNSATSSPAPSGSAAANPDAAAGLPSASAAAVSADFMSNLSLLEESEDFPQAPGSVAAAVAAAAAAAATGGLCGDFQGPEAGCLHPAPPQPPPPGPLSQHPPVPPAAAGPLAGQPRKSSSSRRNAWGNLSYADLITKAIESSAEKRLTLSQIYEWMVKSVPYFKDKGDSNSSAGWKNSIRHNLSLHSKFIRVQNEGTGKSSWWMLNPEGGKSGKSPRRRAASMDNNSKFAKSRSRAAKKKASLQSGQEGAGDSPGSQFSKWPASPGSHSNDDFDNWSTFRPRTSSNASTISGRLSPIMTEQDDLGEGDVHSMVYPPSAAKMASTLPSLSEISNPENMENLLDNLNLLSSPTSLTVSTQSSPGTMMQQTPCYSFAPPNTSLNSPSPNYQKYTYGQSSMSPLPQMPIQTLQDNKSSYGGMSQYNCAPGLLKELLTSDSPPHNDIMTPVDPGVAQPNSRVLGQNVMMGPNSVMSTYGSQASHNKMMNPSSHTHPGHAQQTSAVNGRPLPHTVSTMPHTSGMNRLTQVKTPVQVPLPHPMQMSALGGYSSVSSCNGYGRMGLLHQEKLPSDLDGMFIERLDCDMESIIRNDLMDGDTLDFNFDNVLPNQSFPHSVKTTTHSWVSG

## CNCCCOc1c(Br)cc(CCNC(=O)/C(Cc2ccc(OC)c(Br)c2)=N/O)cc1Br
  Activity: inactive

From ChEMBL document CHEMBL1158737, “The psammaplysenes, specific inhibitors of FOXO1a nuclear export” (J Nat Prod, 2005)
